Earlier results on one substance are cited in patent US5858398A, “Microparticular pharmaceutical compositions” (Isomed Inc., priority 1996, dated 1999).

This data set has as its system intestinal membranes.

Turning to “sn-1-acyl-3-glycerophosphorylcholine [lyso-PC]”, the “concentrations inducing histopathological damage to intestinal membranes” value is on record as 0.01-1 mM.
